Five compounds from patent US20230233500A1, “Gasdermin D (GSDMD) Succination for the Treatment of Inflammatory Disease” (University of Massachusetts, priority 2020, published 2023) can be followed below.

Common to all, as to type: cell-based, mouse
The test system of test [1] is GAPDH target gene iNos. The test is described as follows: QPCR/immunoblot of iNos in BMDMs. The settings on record: WT BMDMs, HA 1 μM 1 hour, LPS 3 or 6 hours. The protocol:
(§1) FIGS. 7A-K. Fumarate regulates pyroptosis independently of NRF2 and GAPDH. (A-B) Kinetic cell death data of WT primary BMDMs treated with LPS for 2 hours, DMSO (vehicle) or fumarate (25 μM) or heptilidic acid (HA) (0.5 μM or 1 μM) (A) or ML385 (1 μM) (B) followed by nigericin (10 μM) for 6 hours. (C-D) LDH (C) and IL-1B (D) release from WT primary BMDMs treated with LPS for 2 hours, DMSO (vehicle) or fumarate (25 μM) for 1 hour, HA or ML385 (1 μM) for 1 hour followed by nigericin (10 μM) or 1 hour. (E-F) Immunoblot analysis of GSDMD in cell lysates from WT BMDMs treated as in (B) with the indicated inhibitors. (G-H) QPCR (G) and immunoblot (H) analysis of iNos in WT BMDMs treated with DMSO (vehicle) or HA (1 μM) for 1 hour and LPS for 3 (G) or 6 (H) hours. (I) QPCR analysis of Hmox1 mRNA in WT BMDMs treated with DMSO (vehicle) or ML385 (1 μM) for 3 hours. (J-K) LDH assay (J) and immunoblot analysis of GSDMD (K) in WT BMDMs transfected with control non-targeting siRNA or NRF2-specific siRNAs (50 nM) for 48 hours followed by treatment with LPS for 2 hours, DMSO (vehicle) or fumarate (25 μM) and nigericin (10 μM) or 1 hour. A, B, E, F, H, K representative images from 3 independent experiments. C, D, G, I, K pooled data from 3 independent experiments. *, P<0.01, ****, P<0.00001 (Two-way ANOVA). Error bars show means±SD (A, B) or SEM (C, D, G, I, J).

In test [2] the test system is Bone marrow-derived macrophages (BMDMs). Description: LPS-nigericin inflammasome activation/pyroptosis in BMDMs. The conditions noted are these: for LPS-Nig-induced release of LDH / LPS-Nig-induced release of IL-1β / kinetic cell death / formation of GSDMD-N: WT BMDMs; for LPS-Nig-induced release of LDH / LPS-Nig-induced release of IL-1β / LPS-Nig induced pyroptosis (inhibitory effect): LPS 2 hr; for LPS-Nig-induced release of LDH / LPS-Nig-induced release of IL-1β: compound 1 hour (fumarate 25 μM), then nigericin; for LPS-Nig-induced release of IL-1β: ELISA; for kinetic cell death / formation of GSDMD-N: LPS-Nig; for kinetic cell death: SYTOX orange, 0-6 hrs; for formation of GSDMD-N: immunoblot; for LPS-Nig induced pyroptosis (inhibitory effect): BMDMs, compound 25 μM 1 hour, nigericin. As to the method: Human kidney cell line HEK293T was cultured in Dulbecco's modified Eagle's medium supplemented with 10% (v/v) fetal bovine serum, 100 U/ml penicillin and 100 µg/ml streptomycin. Human peripheral blood monocyte cell line, THP1 cells were cultured in RPMI-1640 medium supplemented with 10% (v/v) fetal bovine serum, 100 U/ml penicillin and 100 µg/ml streptomycin. For isolation of BMDMs, tibias and femurs were removed from wild type and GsdmD^−/− mice and bone marrow was flushed with complete DMEM-medium. Cells were plated in medium containing 20% (v/v) conditioned medium of L929 mouse fibroblasts cultured for 7 days at 37° C. in a humidified atmosphere of 5% C02. Medium was replaced every 3 days.
Conditioned media or serum was collected as indicated and IL-1β or TNF-α, were quantified by sandwich ELISA (R&D Systems).
Cells were plated, treated and incubated in phenol red free medium. Following treatment medium was collected and assessed for LDH release using the CytoTox96 non-radioactive cytotoxicity assay (Promega) as per manufacturer's instructions. Kinetic cell death assays were performed using SytoxOrange and the Biotek Cytation5.
For noncanonical inflammasome activation, cells were primed with […] Pam3CSK4 (Invivogen) for 2 h, followed by transfection of LPS (2 μg/ml) using Lipofectamine 2000 for 16 hours.
Primary BMDMs from WT or GsdmD^−/− mice were cultured in 12-well plates (1×10^6 cells per ml; 1 ml) or 10 cm dishes (2×10^6 cells per ml; 10 ml). HEK293T cells (2.5×10^5 cells per ml; 3 ml) were cultured in 6-well plates and transfected with FLAG-tagged GSDMD constructs where indicated. For cell lysate analysis cells were lysed directly in 1× Lamelli sample buffer. For native gel analysis cells were lysed in NP-40 lysis buffer (50 mM Tris-HCl, pH 7.4, containing 150 mM NaCl, 0.5% (w/v) IgePal, 50 mM NaF, 1 mM Na3VO4, 1 mM dithiothreitol, 1 mM phenylmethylsulfonyl fluoride and protease inhibitor cocktail. For immunoprecipitation of GSDMD, cells were treated as indicated and then collected in 500 μl RIPA buffer, followed by incubation for 15 min on ice. Lysates were incubated with GSDMD antibody and protein A-protein G-agarose was added to each sample, followed by incubation overnight at 4° C. Immunoprecipitates were collected by centrifugation and washed four times with 1 ml of RIPA buffer. Immunprecipates were eluted from beads using 1× sample buffer. Samples were resolved by SDS-PAGE and stained using simply blue safe stain or transferred to nitrocellulose membranes and analyzed by immunoblot. Immunoreactivity was visualized by the Odyssey Imaging System (LICOR Biosciences). For immunoblotting of IL-1β in cell supernatants, conditioned medium was collected and filtered using filter spin columns to reduce salt and remove abundant serum proteins. Filtrates were added to 4×SDS-PAGE sample buffer and resolved by SDS-PAGE for immunoblot analysis. GSDMD (ab209845) and GSDME antibodies were from abcam (ab215191). Caspase 1 antibody was from adipogen. Fumarase antibody was from cell signalling and anti-β-actin (AC-15; A1978) were from Sigma; anti-mouse IRDye™ 680 (926-68070) and anti-rabbit IRDye™ 800 (926-32211) were from LI-COR Biosciences.
Numerous studies have shown that cell metabolism impacts inflammatory responses. LPS activated macrophages switch from oxidative phosphorylation to aerobic glycolysis. Krebs cycle intermediates such as succinate and itaconate accumulate and moonlight as positive and negative regulators of inflammatory gene expression (3-8). To determine if Krebs cycle intermediates modulate pyroptosis, we tested their effect on inflammasome responses. Bone marrow-derived macrophages (BMDMs) were primed with LPS (2 hr) before being exposed to metabolites and then exposed to nigericin (Nig) and inflammasome activation/pyroptosis measured. The metabolites were added after LPS to avoid any impact on transcription. […] Fumarate impaired kinetic cell death (0-6 hrs) (FIG. 1E, FIG. 5A). […]

Test [3] has as its system NRF2 target gene Hmox1. The test is described as follows: QPCR of Hmox1 mRNA in BMDMs. The settings on record: WT BMDMs, ML385 1 μM 3 hours. The protocol: as §1

Where a name gives a salt, the structure may show the parent alone.

Regarding `CC(C)[C@H]1CC[C@@]2(CO2)[C@H]2C(=O)OCC(C(=O)O)=C[C@H]12` [Heptilidic acid], in test [1], the “expression of GAPDH target gene iNos” value is listed as “inhibited”. In test [2], the “LPS-Nig-induced release of LDH” value was “no impact”, the “LPS-Nig-induced release of IL-1β” value is listed as “no impact”, the kinetic cell death result is “no impact” and the “formation of GSDMD-N” value is “no impact”.

Turning to `Cc1ccccc1C(=O)N1CCc2cc(-c3nc(NC(=O)Cc4ccc5c(c4)OCO5)sc3C)ccc21` [ML385], in test [3], the “expression of NRF2 target gene Hmox1” value was “inhibited”. Further, in test [2], the “LPS-Nig-induced release of LDH” value was “no impact”, the “LPS-Nig-induced release of IL-1β” value is listed as “no impact”, the kinetic cell death entry is on record as “no impact” and the “formation of GSDMD-N” value was “no impact”.

Consider `COC(=O)/C=C/C(=O)O` [MMF, Monomethyl fumarate], for which the “LPS-Nig induced pyroptosis (inhibitory effect)” value in test [2] is given as “no inhibitory effect”.

Consider `COC(=O)/C=C/C(=O)OCCN1C(=O)CCC1=O` [diroximel fumarate], for which, in test [2], the “LPS-Nig induced pyroptosis (inhibitory effect)” value is “blocked” and the “formation of GSDMD-N” value is given as “blocked”.

Consider `CCN(CC)C(=O)COC(=O)/C=C/C(=O)OC` [tepilamide fumarate], for which, in test [2], the “LPS-Nig induced pyroptosis (inhibitory effect)” value is “blocked” and the “formation of GSDMD-N” value is reported as “blocked”.
